What is called IC50 is the concentration that inhibits the measured activity by half.

Consider 17 compounds from patent publication US20250215029A1 (Recludix Pharma, Inc., priority 2022, published 2025).

Assay [1] concerns the target T1, Recombinant STAT3 protein (STAT3 (G127-I722)) (Homo sapiens, UniProt P40763).
T1 construct: Recombinant STAT3 protein (STAT3 (G127-I722))
Description: STAT3 Fluorescence Polarization (FP) Assay. The class given is binding. The settings on record: STAT3 (G127-I722) 25 nM, probe 5-FAM-GpYLPQTV-NH2 2 nM, 45-minute incubation; read-out: STAT3 (FP assay IC50 class). The method, boiled down:
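Displacement of a fluorescent phosphotyrosine peptide (5-FAM-GpYLPQTV-NH2, 2 nM) from 25 nM recombinant STAT3 G127-I722 was monitored by FP after 45 min at room temperature.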
Background: Fluorescence polarisation rises when a labelled molecule tumbles more slowly, as on binding a larger partner.

Assay [2] deals with T2, Recombinant STAT6 protein (STAT6 (W123-T658)) (Homo sapiens, UniProt P42226).
T2 construct: Recombinant STAT6 protein (STAT6 (W123-T658))
T2 sequence (P42226 123-658): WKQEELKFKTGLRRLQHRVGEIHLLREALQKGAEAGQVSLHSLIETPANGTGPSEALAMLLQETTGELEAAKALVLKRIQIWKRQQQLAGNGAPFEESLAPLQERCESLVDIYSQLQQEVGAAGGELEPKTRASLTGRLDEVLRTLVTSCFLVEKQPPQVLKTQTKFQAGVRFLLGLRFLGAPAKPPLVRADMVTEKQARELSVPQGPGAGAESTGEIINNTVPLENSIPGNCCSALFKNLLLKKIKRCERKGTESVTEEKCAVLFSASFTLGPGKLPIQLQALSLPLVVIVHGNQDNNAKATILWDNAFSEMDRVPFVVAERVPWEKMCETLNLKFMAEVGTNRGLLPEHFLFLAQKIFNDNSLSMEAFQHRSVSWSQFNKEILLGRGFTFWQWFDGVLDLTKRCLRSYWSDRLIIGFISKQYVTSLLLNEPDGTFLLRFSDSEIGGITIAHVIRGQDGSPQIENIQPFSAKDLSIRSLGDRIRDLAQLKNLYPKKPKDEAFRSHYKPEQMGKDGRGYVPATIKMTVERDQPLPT
Kind of assay: STAT6 Fluorescence Polarization (FP) Assay. The class given is binding. Particulars: STAT6 (W123-T658) 250 nM, probe 5-FAM-Ap[…]-NH2 2 nM, 45-minute incubation; read-out: STAT6 (FP assay IC50 class). In outline:
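Protein-probe mix (250 nM STAT6 W123-T658, 2 nM 5-FAM-pTyr peptide) in 10 mM HEPES pH 7.4, 50 mM NaCl, 1 mM EDTA, 0.05% Tween 20, 2 mM DTT; added to compound dilution series, 1% DMSO final; 45 min RT; FP read; IC50 via nonlinear regression.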

T1 sequence (P40763 127-722): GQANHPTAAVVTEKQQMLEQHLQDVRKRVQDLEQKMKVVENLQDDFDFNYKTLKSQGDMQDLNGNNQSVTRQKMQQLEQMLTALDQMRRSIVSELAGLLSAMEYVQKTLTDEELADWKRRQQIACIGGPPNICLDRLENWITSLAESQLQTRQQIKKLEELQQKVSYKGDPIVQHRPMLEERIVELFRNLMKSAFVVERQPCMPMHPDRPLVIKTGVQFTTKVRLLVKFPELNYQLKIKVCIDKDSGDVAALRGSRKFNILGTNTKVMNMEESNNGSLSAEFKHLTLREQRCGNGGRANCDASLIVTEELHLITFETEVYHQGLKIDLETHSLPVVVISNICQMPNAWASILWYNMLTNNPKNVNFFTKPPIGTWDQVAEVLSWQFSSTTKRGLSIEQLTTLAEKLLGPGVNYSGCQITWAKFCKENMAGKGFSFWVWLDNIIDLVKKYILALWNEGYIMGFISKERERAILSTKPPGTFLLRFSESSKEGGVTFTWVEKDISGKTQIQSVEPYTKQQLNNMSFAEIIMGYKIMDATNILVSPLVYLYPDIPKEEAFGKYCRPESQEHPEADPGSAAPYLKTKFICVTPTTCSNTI

`O=C(N[C@H]1CCC[C@H]2CC[C@@H](C(=O)N3CC(c4cc(O)ccn4)C3)N2C1=O)c1cc2cc(CP(=O)(O)O)ccc2s1` [Compound 543, ((2-(((3S,6S,9aS)-3-(3-(4-hydroxypyridin-2-yl)azetidine-1-carbonyl)-5-oxooctahydro-1H-pyrrolo[1,2-a]azepin-6-yl)carbamoyl)benzo[b]thiophen-5-yl)methyl)phosphonic acid]: the IC50 in assay [1] was in the range of 1 to 10 µM; in assay [2], 3 to 30 µM.

Take `O=C(N[C@H]1CCC[C@H]2CC[C@@H](C(=O)N3CC(c4ccc5ncccc5c4F)C3)N2C1=O)c1cc2cc(C(F)P(=O)(O)O)ccc2s1` (stereo partly drawn) [Compound 544, (fluoro(2-(((3S,6S,9aS)-3-(3-(5-fluoroquinolin-6-yl)azetidine-1-carbonyl)-5-oxooctahydro-1H-pyrrolo[1,2-a]azepin-6-yl)carbamoyl)benzo[b]thiophen-5-yl)methyl)phosphonic acid]: the figures for the IC50 in assay [1] and in assay [2] were 1 to 10 µM and 3 to 30 µM, respectively.

As for `O=Cc1ccncc1C1CN(C(=O)[C@@H]2CC[C@@H]3CCC[C@H](NC(=O)c4cc5cc(CP(=O)(O)O)ccc5s4)C(=O)N32)C1` [Compound 545, ((2-(((3S,6S,9aS)-3-(3-(4-formylpyridin-3-yl)azetidine-1-carbonyl)-5-oxooctahydro-1H-pyrrolo[1,2-a]azepin-6-yl)carbamoyl)benzo[b]thiophen-5-yl)methyl)phosphonic acid], the results for the IC50 in assay [1] and in assay [2] were 1 to 10 µM and 3 to 30 µM, respectively.

Turning to `O=C(N[C@H]1CCC[C@H]2CC[C@@H](C(=O)N3CC(c4cnccc4C4OCCO4)C3)N2C1=O)c1cc2cc(CP(=O)(O)O)ccc2s1` [Compound 546, ((2-(((3S,6S,9aS)-3-(3-(4-(1,3-dioxolan-2-yl)pyridin-3-yl)azetidine-1-carbonyl)-5-oxooctahydro-1H-pyrrolo[1,2-a]azepin-6-yl)carbamoyl)benzo[b]thiophen-5-yl)methyl)phosphonic acid], the IC50 in assay [1] fell in the range of 1 to 10 µM; in assay [2], 3 to 30 µM.

Take `CC1(c2ccccn2)CN(C(=O)[C@@H]2CC[C@@H]3CCC[C@H](NC(=O)c4cc5cc(C(F)(F)P(=O)(O)O)ccc5s4)C(=O)N32)C1` [Compound 547, (difluoro(2-(((3S,6S,9aS)-3-(3-methyl-3-(pyridin-2-yl)azetidine-1-carbonyl)-5-oxooctahydro-1H-pyrrolo[1,2-a]azepin-6-yl)carbamoyl)benzo[b]thiophen-5-yl)methyl)phosphonic acid]: the values for the IC50 in assay [1] and in assay [2] were less than 0.1 µM and 0.3 to 3 µM, respectively.

For the compound `CC1(c2ccccn2)CN(C(=O)[C@@H]2CC[C@@H]3CCC[C@H](NC(=O)c4cc5cc(CP(=O)(O)O)ccc5s4)C(=O)N32)C1` [Compound 548, ((2-(((3S,6S,9aS)-3-(3-methyl-3-(pyridin-2-yl)azetidine-1-carbonyl)-5-oxooctahydro-1H-pyrrolo[1,2-a]azepin-6-yl)carbamoyl)benzo[b]thiophen-5-yl)methyl)phosphonic acid], the IC50 fell in the range of 1 to 10 µM in assay [1] and 3 to 30 µM in assay [2].

On to `NC(=O)N1CC(NC(=O)[C@@H]2CC[C@@H]3CCCC[C@H](NC(=O)c4cc5cc(C(F)P(=O)(O)O)ccc5s4)C(=O)N32)C1` (stereo partly drawn) [Compound 549, ((2-(((3S,6S,10aS)-3-((1-carbamoylazetidin-3-yl)carbamoyl)-5-oxodecahydropyrrolo[1,2-a]azocin-6-yl)carbamoyl)benzo[b]thiophen-5-yl)fluoromethyl)phosphonic acid], for which the figures for the concentration for half-maximal inhibition (IC50) in assay [1] and in assay [2] were less than 0.1 µM and 3 to 30 µM, respectively.

On to `CCc1ccncc1C1CN(C(=O)[C@@H]2CC[C@@H]3CCC[C@H](NC(=O)c4ccc5cc(CP(=O)(O)O)sc5c4)C(=O)N32)C1` [Compound 550, ((6-(((3S,6S,9aS)-3-(3-(4-ethylpyridin-3-yl)azetidine-1-carbonyl)-5-oxooctahydro-1H-pyrrolo[1,2-a]azepin-6-yl)carbamoyl)benzo[b]thiophen-2-yl)methyl)phosphonic acid], for which the IC50 in assay [1] was 0.1 to 1 µM; in assay [2], 3 to 30 µM.

With `O=C(N[C@H]1CCCC[C@H]2CC[C@@H](C(=O)N[C@H]3CN(C(=O)OC4CC4)C[C@@H]3F)N2C1=O)c1cc2cc(C(F)P(=O)(O)O)ccc2s1` (stereo partly drawn) [Compound 554, ((2-(((3S,6S,10aS)-3-(((3S,4S)-1-(cyclopropoxycarbonyl)-4-fluoropyrrolidin-3-yl)carbamoyl)-5-oxodecahydropyrrolo[1,2-a]azocin-6-yl)carbamoyl)benzo[b]thiophen-5-yl)fluoromethyl)phosphonic acid], the results for the IC50 in assay [1] and in assay [2] were 1 to 10 µM and 0.3 to 3 µM, respectively.

Consider `Cc1cccnc1N1C[C@H](NC(=O)[C@@H]2CC[C@@H]3CCCC[C@H](NC(=O)c4cc5cc(C(F)P(=O)(O)O)ccc5s4)C(=O)N32)[C@@H](F)C1` (stereo partly drawn) [Compound 555, (fluoro(2-(((3S,6S,10aS)-3-(((3S,4S)-4-fluoro-1-(3-methylpyridin-2-yl)pyrrolidin-3-yl)carbamoyl)-5-oxodecahydropyrrolo[1,2-a]azocin-6-yl)carbamoyl)benzo[b]thiophen-5-yl)methyl)phosphonic acid], for which the values for the IC50 in assay [1] and in assay [2] were 0.1 to 1 µM and 3 to 30 µM, respectively.

In the case of `COc1cc(F)c(C2CN(C(=O)[C@@H]3CC[C@@H]4CCC[C@H](NC(=O)c5cc6cc(CP(=O)(O)O)ccc6s5)C(=O)N43)C2)cn1` [Compound 556, ((2-(((3S,6S,9aS)-3-(3-(4-fluoro-6-methoxypyridin-3-yl)azetidine-1-carbonyl)-5-oxooctahydro-1H-pyrrolo[1,2-a]azepin-6-yl)carbamoyl)benzo[b]thiophen-5-yl)methyl)phosphonic acid], the results for the IC50 in assay [1] and in assay [2] were 1 to 10 µM and 3 to 30 µM, respectively.

As to `NC(=O)N1C[C@H](NC(=O)[C@@H]2CC[C@@H]3CCCC[C@H](NC(=O)c4cc5cc(C(F)P(=O)(O)O)ccc5s4)C(=O)N32)[C@@H](F)C1` (stereo partly drawn) [Compound 558, ((2-(((3S,6S,10aS)-3-(((3S,4S)-1-carbamoyl-4-fluoropyrrolidin-3-yl)carbamoyl)-5-oxodecahydropyrrolo[1,2-a]azocin-6-yl)carbamoyl)benzo[b]thiophen-5-yl)fluoromethyl)phosphonic acid], the values for the IC50 in assay [1] and in assay [2] were less than 0.1 µM and 0.3 to 3 µM, respectively.

Take `O=C(N[C@H]1CCCC[C@H]2CC[C@@H](C(=O)N[C@@H]3CCN(c4ccn[nH]4)C3)N2C1=O)c1cc2cc(C(F)P(=O)(O)O)ccc2s1` (stereo partly drawn) [Compound 559, ((2-(((3S,6S,10aS)-3-(((R)-1-(1H-pyrazol-5-yl)pyrrolidin-3-yl)carbamoyl)-5-oxodecahydropyrrolo[1,2-a]azocin-6-yl)carbamoyl)benzo[b]thiophen-5-yl)fluoromethyl)phosphonic acid]: the values for the IC50 in assay [1] and in assay [2] were 1 to 10 µM and 0.3 to 3 µM, respectively.

As for `O=C(N[C@H]1CCC[C@H]2CC[C@@H](C(=O)N3CC(c4cc5cccnc5cc4F)C3)N2C1=O)c1cc2cc(C(F)P(=O)(O)O)ccc2s1` (stereo partly drawn) [Compound 560, (fluoro(2-(((3S,6S,9aS)-3-(3-(7-fluoroquinolin-6-yl)azetidine-1-carbonyl)-5-oxooctahydro-1H-pyrrolo[1,2-a]azepin-6-yl)carbamoyl)benzo[b]thiophen-5-yl)methyl)phosphonic acid], the results for the IC50 in assay [1] and in assay [2] were 1 to 10 µM and 3 to 30 µM, respectively.

With `O=C(N[C@H]1CCC[C@H]2CC[C@@H](C(=O)N3CC(c4cccnc4C(F)F)C3)N2C1=O)c1cc2cc(CP(=O)(O)O)ccc2s1` [Compound 562, ((2-(((3S,6S,9aS)-3-(3-(2-(difluoromethyl)pyridin-3-yl)azetidine-1-carbonyl)-5-oxooctahydro-1H-pyrrolo[1,2-a]azepin-6-yl)carbamoyl)benzo[b]thiophen-5-yl)methyl)phosphonic acid], the IC50 is 0.1 to 1 µM in assay [1] and 3 to 30 µM in assay [2].

Take `O=C(N[C@H]1CCCC[C@H]2CC[C@@H](C(=O)N3CCC(c4ccccc4F)C3)N2C1=O)c1cc2cc(C(F)P(=O)(O)O)ccc2s1` (stereo partly drawn) [Compound 563, (fluoro(2-(((3S,6S,10aS)-3-(3-(2-fluorophenyl)pyrrolidine-1-carbonyl)-5-oxodecahydropyrrolo[1,2-a]azocin-6-yl)carbamoyl)benzo[b]thiophen-5-yl)methyl)phosphonic acid]: the values for the IC50 in assay [1] and in assay [2] were 1 to 10 µM and 0.3 to 3 µM, respectively.

Consider `O=C(N[C@H]1CCCC[C@H]2CC[C@@H](C(=O)N3CCC(c4cccnc4)CC3)N2C1=O)c1cc2cc(C(F)P(=O)(O)O)ccc2s1` (stereo partly drawn) [Compound 564, (fluoro(2-(((3S,6S,10aS)-5-oxo-3-(4-(pyridin-3-yl)piperidine-1-carbonyl)decahydropyrrolo[1,2-a]azocin-6-yl)carbamoyl)benzo[b]thiophen-5-yl)methyl)phosphonic acid], for which the values for the IC50 in assay [1] and in assay [2] were 0.1 to 1 µM and 3 to 30 µM, respectively.
